Data published in ChEMBL document CHEMBL5584232, “Hijacking monopolar spindle 1 (MPS1) for various cancer types by small molecular inhibitors: Deep insights from a decade of research and patents” (Eur J Med Chem, 2024).
pIC50: −log10 of the molar value.

Legend:
[1] = Clearance in Wistar rat at 1 mg/kg, iv measured after 24 hrs by LC-MS/MS analysis; type: ADME, organism-based; settings: in vivo
[2] = Dose normalized AUC in Wistar rat at 1 mg/kg, po measured for 24 hrs by LC-MS/MS analysis; type: ADME, organism-based; settings: in vivo
[3] = Clearance in Beagle dog at 0.5 mg/kg, iv measured for 24 hrs by LC-MS/MS analysis; type: ADME, organism-based, Canis lupus familiaris; settings: in vivo
[4] = Dose normalized AUC in Beagle dog at 1 mg/kg, po measured for 24 hrs by LC-MS/MS analysis; type: ADME, organism-based, Canis lupus familiaris; settings: in vivo
[5] = tested on: CAL-51; test: Antiproliferative activity against human CAL-51 cells assessed as reduction in cell viability incubated for 72 hrs by MTT assay; type: functional, cell-based; settings: CAL-51, 72 h
[6] = AUC in ICR mouse at 3 mg/kg, po and measured after 24 hrs by LC-MS/MS analysis; type: ADME, organism-based; settings: in vivo
[7] = biological target: T1, Dual specificity protein kinase TTK (Homo sapiens, UniProt P33981); test: Inhibition of MPS1 (unknown origin)
T1 sequence (P33981 whole entry): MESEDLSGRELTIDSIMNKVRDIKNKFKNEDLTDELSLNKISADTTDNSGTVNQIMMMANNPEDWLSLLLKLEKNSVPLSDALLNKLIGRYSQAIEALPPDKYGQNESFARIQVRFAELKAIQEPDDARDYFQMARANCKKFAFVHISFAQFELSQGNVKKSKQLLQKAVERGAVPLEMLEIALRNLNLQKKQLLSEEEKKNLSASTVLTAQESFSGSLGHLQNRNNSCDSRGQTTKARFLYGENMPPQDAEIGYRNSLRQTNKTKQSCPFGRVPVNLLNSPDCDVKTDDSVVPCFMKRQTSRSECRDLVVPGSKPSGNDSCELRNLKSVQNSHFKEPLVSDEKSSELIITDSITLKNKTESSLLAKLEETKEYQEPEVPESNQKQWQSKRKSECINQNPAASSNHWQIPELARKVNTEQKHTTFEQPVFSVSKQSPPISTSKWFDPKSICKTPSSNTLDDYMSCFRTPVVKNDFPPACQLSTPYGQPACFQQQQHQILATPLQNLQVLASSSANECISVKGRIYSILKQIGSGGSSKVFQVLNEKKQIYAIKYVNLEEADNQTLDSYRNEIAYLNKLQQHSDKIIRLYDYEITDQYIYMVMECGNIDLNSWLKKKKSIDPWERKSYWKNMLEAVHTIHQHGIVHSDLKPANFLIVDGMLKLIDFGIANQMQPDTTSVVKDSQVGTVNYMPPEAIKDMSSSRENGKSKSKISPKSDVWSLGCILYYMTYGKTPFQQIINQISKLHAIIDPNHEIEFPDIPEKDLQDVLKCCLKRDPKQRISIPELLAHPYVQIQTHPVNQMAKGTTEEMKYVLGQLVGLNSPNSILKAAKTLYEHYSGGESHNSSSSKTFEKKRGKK

[8] = AUC in Sprague-Dawley rat at 3 mg/kg, po by LC-MS/MS analysis; type: ADME, organism-based; settings: in vivo
[9] = Oral bioavailability in ICR mouse at 5 mg/kg by LC-MS/MS analysis; type: ADME, organism-based; settings: in vivo
[10] = Cmax in Sprague-Dawley rat at 3 mg/kg, po by LC-MS/MS analysis; type: ADME, organism-based; settings: in vivo
[11] = Cmax in ICR mouse at 3 mg/kg, po; type: ADME, organism-based; settings: in vivo
[12] = biological target: T2, Aurora kinase A (Homo sapiens, UniProt O14965); test: Inhibition of AURORA-A (unknown origin)
T2 sequence (O14965 whole entry): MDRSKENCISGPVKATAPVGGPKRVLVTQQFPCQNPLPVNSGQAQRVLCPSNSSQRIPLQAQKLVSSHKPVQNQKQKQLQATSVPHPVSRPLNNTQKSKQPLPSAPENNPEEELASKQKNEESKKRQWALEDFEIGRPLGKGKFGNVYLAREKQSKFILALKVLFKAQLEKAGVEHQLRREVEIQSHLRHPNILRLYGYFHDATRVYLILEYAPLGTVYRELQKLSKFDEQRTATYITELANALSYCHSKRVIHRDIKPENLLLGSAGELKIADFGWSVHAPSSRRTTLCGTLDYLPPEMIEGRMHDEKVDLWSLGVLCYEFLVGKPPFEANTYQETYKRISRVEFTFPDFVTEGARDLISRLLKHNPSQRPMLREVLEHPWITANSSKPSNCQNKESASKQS

[13] = Metabolic stability in mouse liver microsomes assessed as drug metabolism measured after 30 mins; type: ADME, Microsome; settings: read-out: Drug metabolism
[14] = tested on: MOLT-4; test: Antiproliferative activity against human MOLT-4 cells assessed as reduction in cell growth incubated for 72 hrs by MTT assay; type: functional, cell-based; settings: MOLT-4, 72 h
[15] = tested on: COLO 205; test: Antiproliferative activity against human COLO 205 cells assessed as reduction in cell viability incubated for 48 hrs by MTT assay; type: functional, cell-based; settings: COLO 205, 48 h
[16] = Half life in mouse; type: ADME, organism-based; settings: in vivo
[17] = AUC in mouse; type: ADME, organism-based; settings: in vivo
[18] = biological target: Mitogen-activated protein kinase 8 (Homo sapiens, UniProt P45983); test: Inhibition of JNK1 (unknown origin) using ATF2 as substrate after 1 hr by Lanthascreen TR-FRET assay
[19] = tested on: CAL-51; test: Antiproliferative activity against human CAL-51 cells assessed as inhibition of cell growth incubated for 72 hrs by MTT assay; type: functional, cell-based; settings: CAL-51, 72 h
[20] = tested on: SK-OV-3; test: Anticancer activity against human SK-OV-3 cells assessed as cell growth inhibition measured after 72 hrs by DAPI staining based analysis; type: functional
[21] = tested on: IGROV-1; test: Anticancer activity against human IGROV-1 cells assessed as cell growth inhibition measured after 72 hrs by DAPI staining based analysis; type: functional
[22] = tested on: NCI/ADR-RES; test: Anticancer activity against human NCI-ADR-RES cells assessed as cell growth inhibition measured after 72 hrs by DAPI staining based analysis; type: functional
[23] = tested on: OVCAR-8; test: Anticancer activity against human OVCAR-8 cells assessed as cell growth inhibition measured after 72 hrs by DAPI staining based analysis; type: functional
[24] = tested on: OVCAR-5; test: Anticancer activity against human OVCAR-5 cells assessed as cell growth inhibition measured after 72 hrs by DAPI staining based analysis; type: functional
[25] = tested on: IGROV-1; test: Growth inhibition of human IGROV-1 cells measured after 72 hrs by SRB method; type: functional
[26] = tested on: OVCAR-4; test: Growth inhibition of human OVCAR-4 cells measured after 72 hrs by SRB method; type: functional
[27] = tested on: OVCAR-4; test: Anticancer activity against human OVCAR-4 cells assessed as cell growth inhibition measured after 72 hrs by DAPI staining based analysis; type: functional
[28] = tested on: OVCAR-3; test: Anticancer activity against human OVCAR-3 cells assessed as cell growth inhibition measured after 72 hrs by DAPI staining based analysis; type: functional
[29] = tested on: A549; test: Antiproliferative activity against human A549 cells assessed as reduction in cell growth incubated for 48 hrs by MTT assay; type: functional, cell-based; settings: A549, 48 h

Sequence of Mitogen-activated protein kinase 8 (P45983 whole entry): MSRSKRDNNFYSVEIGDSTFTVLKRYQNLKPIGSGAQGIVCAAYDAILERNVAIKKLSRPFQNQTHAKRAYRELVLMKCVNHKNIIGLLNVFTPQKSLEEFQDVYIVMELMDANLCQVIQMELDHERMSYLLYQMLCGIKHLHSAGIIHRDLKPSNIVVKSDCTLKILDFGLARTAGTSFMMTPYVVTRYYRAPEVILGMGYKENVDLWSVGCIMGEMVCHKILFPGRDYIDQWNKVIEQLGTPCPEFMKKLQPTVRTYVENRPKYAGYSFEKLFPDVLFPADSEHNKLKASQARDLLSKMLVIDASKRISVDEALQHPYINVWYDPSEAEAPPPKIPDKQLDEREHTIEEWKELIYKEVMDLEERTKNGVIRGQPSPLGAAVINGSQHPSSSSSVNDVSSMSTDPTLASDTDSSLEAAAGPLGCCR

`COc1ccc(Oc2cc(NCCC(F)(F)F)c3ncc(-c4ccc(C(=O)NC5CC5)c(C)c4)n3n2)c(F)c1F` [BAY-1217389] gave a clearance [1] of 8.67 mL/min/kg, an AUC/dose [2] of 2.4 kg·h/L and a clearance [3] of 7.33 mL/min/kg. The AUC/dose [4] was 2.5 kg·h/L.
Work on `C[C@H](Oc1cc(C(=O)N(C)C)ccc1Nc1nc(O[C@H]2CC[C@@](C)(O)CC2)c2c(Cl)c[nH]c2n1)C(F)(F)F` yielded a pIC50 [5] of 8.00, an AUC at 24 h [6] of 22.5 µM·h and a pIC50 [7] of 9.15. For the same compound, the AUC [8] was 26.3 µM·h, the bioavailability [9] was 60% and the Cmax [10] was 4.35 µM. It also gave a Cmax [11] of 5.2 µM.
In the case of `CN(C)C(=O)c1cc2cnc(Nc3ccc(-c4cnn(C)c4)cc3Cl)cc2[nH]1`, the pIC50 [12] was less than 4.00 and the metabolised at 0.5 h [13] was 20%.
For `COc1cc(C(=O)N(C)C)ccc1Nc1nc(OC2CCCC2)c2cc[nH]c2n1`, the pIC50 [7] was 9.00.
In the case of `COc1cc(N2CCN(C)CC2)ccc1Nc1ncc2c(n1)-n1ccc(C(=O)Nc3c(C)cccc3F)c1CC2`, the pIC50 [14] was 7.96.
`CCC(=O)N[C@H]1CC[C@@H](n2c(=O)cc(C)c3cnc(Nc4ccc(N5CCN(C(=O)CCC#Cc6ccc7c(c6)CN(C6CCC(=O)NC6=O)C7=O)CC5)cc4OC)nc32)CC1` (stereo partly drawn) showed a pIC50 [15] of 7.00, a half-life [16] of 4.3 h and an AUC [17] of 2.23 µM·h.
Compound `CCOc1ccc2[nH]nc(-c3cccc(NC(C)=O)c3)c2c1` has a pIC50 [18] of 6.82.
Work on `CNC(=O)c1ccc(Nc2nc(OC3CCCC3)c3c(-c4cc[nH]n4)c[nH]c3n2)c(OC)c1` yielded a pIC50 [19] of 6.40.
Compound `COc1cc(C(=O)NC(C)(C)CO)ccc1Nc1nc(OC2CCCC2)c2c(-c3ccc4nc(C)oc4c3)c[nH]c2n1` has a pIC50 [19] of 7.00.
For `CN(C)C(=O)c1cc2cnc(Nc3ccc(S(=O)(=O)N(C)C)cc3Cl)cc2[nH]1`, the pIC50 [12] was less than 4.40 and the metabolised at 0.5 h [13] was 25%.
With `O=c1c2cc(Cl)ccc2sc2c(NCCCNCCO)nc3ccccc3c12` the TGI [20] was 3380 nM, the TGI [21] was 3600 nM and the TGI [22] was 3630 nM. It also gave a TGI [23] of 3320 nM, a TGI [24] of 3500 nM and a GI50 [25] of 1600 nM. The GI50 [26] was 1600 nM, the TGI [27] was 3230 nM and the TGI [28] was 3510 nM.
In the case of `CCC(=O)N[C@H]1CC[C@@H](n2c(=O)cc(C)c3cnc(Nc4ccc(N5CCN(C(=O)CCCCC#Cc6ccc7c(c6)CN(C6CCC(=O)NC6=O)C7=O)CC5)cc4OC)nc32)CC1` (stereo partly drawn), the pIC50 [15] was 6.70, the half-life [16] was 3.2 h and the AUC [17] was 2.33 µM·h.
Work on `CCOc1cc2c(-c3ccc(C)c(S(N)(=O)=O)c3)n[nH]c2cc1-c1cnn(C)c1` yielded a pIC50 [29] of 6.41.
Work on `CN1CCC(c2ccc(Nc3ncc4c(n3)-n3ccc(C(N)=O)c3CC4)cc2)CC1` yielded a pIC50 [7] of 8.06.
Compound `CCOc1cc2c(-c3cccc(S(N)(=O)=O)c3)n[nH]c2cc1-c1cn[nH]c1` has a pIC50 [29] of 6.41.
